Measured values from ChEMBL document CHEMBL4651402, “Screening of ~5500 FDA-approved drugs and clinical candidates for anti-SARS-CoV-2 activity” (2021).

Test system: SARS-CoV-2
Assay: microbe, parasite or virus in culture
Conditions: Severe acute respiratory syndrome coronavirus 2, Vero C1008, 48 h

SMILES | IC50 | IC50 (read-out: pIC50 (converted))
CN1c2ccccc2Sc2ccc(CC(=O)O)cc21 [METIAZINIC ACID] | > 20 µM | > 20 µM
CCCCCCCCCC(=O)OC1(c2ccc(Cl)cc2)CCN(CCCC(=O)c2ccc(F)cc2)CC1 [HALOPERIDOL DECANOATE] | > 20 µM | > 20 µM
C=C[C@]1(C)C[C@@H](OC(=O)CSCCN(CC)CC)[C@]2(C)C(C)CC[C@]3(CCC(=O)[C@@H]32)[C@@H](C)[C@@H]1O (stereo not given in full) | > 20 µM | > 20 µM
CC12CCC(=O)C=C1C=CC1C2CCC2(C)C1CCC2(O)CCC(=O)O (stereo not given) | > 20 µM | > 20 µM
CC(=O)N(O)C/C=C/c1cccc(Oc2ccccc2)c1 | > 20 µM | > 20 µM
CC(=O)NC1(c2ccccc2)CCN(CC[C@@H](CN(C)C(=O)c2ccccc2)c2ccc(Cl)c(Cl)c2)CC1 | > 20 µM | > 20 µM
COc1cc(OC)c2c(=O)[nH]c(-c3cc(C)c(OCCO)c(C)c3)nc2c1 [APABETALONE] | > 20 µM | > 20 µM
COc1ccc(-c2c(C#N)c(C(=O)NN3CCCCC3)nn2-c2ccc(Cl)cc2Cl)cc1 [JHU-75528] | > 20 µM | > 20 µM
CCOC(=O)Nc1nc2ccccc2[nH]1 [LOBENDAZOLE] | > 20 µM | > 20 µM
CC(C)C[C@H](N)C(=O)O [LEUCINE] | > 20 µM | > 20 µM
CC(C)(C)Cn1c(N)nc2ccc(-c3[nH]c(C(C)(C)C)nc3-c3ccc(F)cc3)nc21 [RALIMETINIB] | > 20 µM | > 20 µM
C[S+]([O-])c1ccc(-c2nc(-c3ccc(F)cc3)c(-c3ccncc3)[nH]2)cc1 (stereo not given) [SB-203580] | > 20 µM | > 20 µM
COc1ccc2c(O[C@H]3C[C@@H]4C(=O)N[C@@]5(C(=O)NS(=O)(=O)C6CC6)C[C@@H]5/C=C\CCCCN(C)C(=O)[C@H]4C3)cc(-c3nc(C(C)C)cs3)nc2c1C (single isomer, unassigned) | > 20 µM | > 20 µM
CC(C)OC(=O)C1(c2ccccc2)CCN(C)CC1 [PROPERIDINE] | > 20 µM | > 20 µM
CC1=CCCC2C1(C)CCC(C)C2(C)Cc1cc(O)ccc1O (stereo not given) | > 20 µM | > 20 µM
N#Cc1ccc(/C=N/NC(N)=S)s1 [CITENAZONE] | > 20 µM | > 20 µM
CC(C(=O)O)c1ccc2c(c1)Cc1ccccc1-2 (stereo not given) [CICLOPROFEN] | > 20 µM | > 20 µM
CCCCC/C=C/C/C=C/CCCCCCCC(=O)NC(C)c1ccccc1 (stereo not given) [MELINAMIDE] | > 20 µM | > 20 µM
CC(C)CCCC(C)NC(C)C (stereo not given) [IPROHEPTINE] | > 20 µM | > 20 µM
CC[C@]1(O)C[C@H]2CN(CCc3c([nH]c4ccccc34)[C@@](C(=O)OC)(c3cc4c(cc3OC)N(C=O)[C@H]3[C@@](O)(C(=O)OC)[C@H](OC(C)=O)[C@]5(CC)C=CCN6CC[C@]43[C@@H]65)C2)C1 [VINCRISTINE] | > 20 µM | > 20 µM
Oc1c(I)cc(Cl)c2cccnc12 [CLIOQUINOL] | > 20 µM | > 20 µM
Cc1ccccn1 | > 20 µM | > 20 µM
Cc1ccc(S(=O)(=O)NC(=O)NN2CC3CCCC3C2)cc1 (stereo not given) [GLICLAZIDE] | > 20 µM | > 20 µM
O=C1CN2Cc3c(ccc(Cl)c3Cl)N=C2N1 [ANAGRELIDE] | > 20 µM | > 20 µM
Cc1cccc(Nc2ccccc2C(=O)O)c1C [MEFENAMIC ACID] | > 20 µM | > 20 µM
O=C(O)CCCC/C=C(/c1ccccc1)c1cccnc1 [ISBOGREL] | > 20 µM | > 20 µM
O=c1cc(-c2ccc(O)cc2)oc2cc(O)cc(O)c12 [APIGENIN] | > 20 µM | > 20 µM
CCOC(=O)C1(c2ccccc2)CCN(C)CC1 [MEPERIDINE] | > 20 µM | > 20 µM
N[C@H]1C(O)O[C@H](CO)[C@@H](O)[C@@H]1O (stereo not given in full) [GLUCOSAMINE] | > 20 µM | > 20 µM
CCC(CCC(C)C1CCC2C3CC[C@H]4CC(O)CCC4(C)C3CCC12C)C(C)C (stereo not given in full) | > 20 µM | > 20 µM
